One test relates to HCV. Briefly: In vitro anti-HCV assay in HCV RNA-replicating cell line AVA5. The format is cell-based. The note with it: HCV. Here is the method:
The antiviral activity of test compounds were assayed in the stably HCV RNA-replicating cell line. AVA5, derived by transfection of the human hepatoblastoma cell line, Huh^7 (Blight et al., 2000). Experimental drugs were added to dividing cultures once daily for three days. Media was changed with each addition of compound. Cultures generally started the assays at 50% confluence and reached confluence during the last day of treatment. HCV RNA and cellular β-actin RNA levels were assessed 24 hours after the last dose of compound using dot blot hybridization. Assays were conducted using a single dose of test compound (in triplicate cultures).
Both HCV and β-actin RNA levels in the treated cultures were expressed as a percentage of the mean levels of RNA detected in untreated cultures. β-actin RNA levels were used both as a measure of toxicity, and to normalize the amount of cellular RNA in each sample. A level of 30% or less HCV RNA (relative to control cultures) was considered to be a positive antiviral effect, and a level of 50% or less β-actin RNA (relative to control cultures) is considered to be a cytotoxic effect.
Dividing cultures of AVAB cells were treated once daily for three days (media was changed with each addition of compound) with 4 concentrations of test compounds (3 cultures per concentration). A total of 6 untreated control cultures, and triplicate cultures treated with 10, 3, and 1 IU/ml α-interferon (active antiviral with no cytotoxicity), and 100, 10, and 1 μM ribavir ([…]) served as controls. HCV RNA and cellular β-actin FNA levels were assessed 24 hours after the last dose of compound using dot blot hybridization. β-actin RNA levels were used to normalize the amount of cellular RNA in each sample.
Toxicity analyses were performed on separate plates from those used for the antiviral assays. Cells for the toxicity analyses were cultured and treated with test compounds with the same schedule and under identical culture conditions used for the antiviral evaluations. Each compound was tested at 4 concentrations, each in triplicate cultures. Uptake of neutral red dye was used to determine the relative level of toxicity 24 hours following the last treatment. The absorbance of internalized dye at […] (A510) was used for the quantitative analysis. Values in test cultures were compared to 9 cultures of untreated cells maintained on the same plate as the test cultures.
Assays similar to those described above were conducted.

The subject of the next test is HSV-2 strain MS. The test can be described thus: CPE reduction assay in Vero cells, HSV-2. The format is cell-based.

From patent publication US20070219159A1, “CYCLODEXTRIN COMPOSITIONS AND METHODS OF TREATING VIRAL INFECTIONS” (priority 2002, published 2007) come the findings set out here.

As for `OC[C@H]1O[C@@H]2O[C@H]3[C@H](O)[C@@H](O)[C@@H](O[C@H]4[C@H](O)[C@@H](O)[C@@H](O[C@H]5[C@H](O)[C@@H](O)[C@@H](O[C@H]6[C@H](O)[C@@H](O)[C@@H](O[C@H]7[C@H](O)[C@@H](O)[C@@H](O[C@H]8[C@H](O)[C@@H](O)[C@@H](O[C@H]1[C@H](O)[C@H]2O)O[C@@H]8CO)O[C@@H]7CO)O[C@@H]6CO)O[C@@H]5CO)O[C@@H]4CO)O[C@@H]3CO` [BCD, β-cyclodextrin], the “S.I. for HCV” value in the test on HCV was found to be 1.13. For the same molecule, in the test on HSV-2 strain MS (HSV-2, MOI 0.001 and 0.1, BCD 7-8 mg/ml), the “protection of Vero cells by inhibition of viral CPE” value was “almost complete protection”. In the test with HSV-2 strain MS (HSV-2, MOI 2.0), the “inhibition of infection, direct microscopy and crystal violet staining” value is given as “inhibited infection”. In addition, the “anti-herpes effects at high multiplicity of infection” value with HSV-2 strain MS (HSV-2, MOI >50, BCD 7-8 mg/ml) was “exhibited anti-herpes effects”.
